Results reported in patent US20060073188A1, “Fast-dissolving isotropic expanded microporous composition or structure for pharmaceutical, veterinary, dietetic, food or cosmetic use and method for obtaining same” (PIERRE FABRE MEDICAMENT, priority 1999, published 2006).

Assay: physchem

solubility	SMILES
< 100 µg/mL	CN1C(C(=O)Nc2ccccn2)=C(O)c2ccccc2S1(=O)=O [piroxicam]
< 100 µg/mL	O=c1[nH]c2ccccc2n1CCCN1CCC(n2c(=O)[nH]c3cc(Cl)ccc32)CC1 [domperidone]
